Experimental data as given in patent US20150322051A1, “Macrocyclic picolinamides as fungicides” (Dow AgroSciences LLC, priority 2014, published 2015).
Read-outs that look alike come from different tables or passages of the source.

Assays:
[1] = test system: Mycosphaerella graminicola; anamorph: Septoria tritici (SEPTTR); test: Leaf blotch of wheat (SEPTTR) whole-plant fungicidal test; format: in vivo; conditions: Zymoseptoria tritici, topical, low volume (track spray) application, 121.5 g/H
Method: (§1) All fungicides were evaluated using the aforementioned method for their activity vs. all target diseases, unless stated otherwise. Wheat leaf blotch and brown rust activity were also evaluated using track spray applications, in which case the fungicides were formulated as EC formulations, containing 0.1% Trycol 5941 in the spray solutions. Wheat plants (variety Yuma) were grown from seed in a greenhouse in 50% mineral soil/50% soil-less Metro mix until the first leaf was fully emerged, with 7-10 seedlings per pot. These plants were inoculated with an aqueous spore suspension of Septoria tritici either prior to or after fungicide treatments. After inoculation the plants were kept in 100% relative humidity (one day in a dark dew chamber followed by two to three days in a lighted dew chamber at 20° C.) to permit spores to germinate and infect the leaf. The plants were then transferred to a greenhouse set at 20° C. for disease to develop. When disease symptoms were fully expressed on the 1st leaves of untreated plants, infection levels were assessed on a scale of 0 to 100 percent disease severity. Percent disease control was calculated using the ratio of disease severity on treated plants relative to untreated plants.

[2] = test system: Puccinia triticina; synonym: Puccinia recondita f. sp. tritici (PUCCRT); test: Wheat brown rust (PUCCRT) whole-plant fungicidal test; format: in vivo; conditions: topical, low volume (track spray) application, 121.5 g/H
Method: as §1, with “plants. Wheat plants (variety Yuma) were grown from seed in a greenhouse in 50% mineral soil/50% soil-less Metro mix until the first leaf was fully emerged, with 7-10 seedlings per pot. These plants were inoculated with an aqueous spore suspension of Puccinia triticina either prior to or after fungicide treatments. […] The plants were then transferred to a greenhouse set at 24° C. for disease to develop. Fungicide formulation, application and disease assessment followed the procedures as described in the Example A.” for “plants.”

[3] = 24 h, 1 Day Protectant, read-out: Low Volume activity at 121.5 g/H SEPTTR 1DP (% disease control rating)
[4] = 72 h, 3 Day Curative, read-out: Low Volume activity at 121.5 g/H SEPTTR 3DC (% disease control rating)
[5] = 24 h, 1 Day Protectant, read-out: Low Volume activity at 121.5 g/H PUCCRT 1DP (% disease control rating)
[6] = 72 h, 3 Day Curative, read-out: Low Volume activity at 121.5 g/H PUCCRT 3DC (% disease control rating)

Compound	pest or weed control at 121.5 g/ha [1, 3] [%]	pest or weed control at 121.5 g/ha [1, 4] [%]	pest or weed control at 121.5 g/ha [2, 5] [%]	pest or weed control at 121.5 g/ha [2, 6] [%]
COc1ccnc(C(=O)N[C@H]2CCC[C@H](Cc3ccc(C(F)(F)F)cc3)[C@@H](Cc3ccc(F)cc3)[C@H](C)OC2=O)c1OC(C)=O [Compound 40]	> 70	< 70	< 70	< 70
COc1ccnc(C(=O)N[C@H]2CCC[C@H](Cc3ccc(C(F)(F)F)cc3)[C@@H](Cc3ccc(F)cc3)[C@H](C)OC2=O)c1OCOC(=O)C(C)C [Compound 41]	< 70	< 70	< 70	< 70
COc1ccnc(C(=O)N[C@H]2CCC[C@H](CCC(C)C)[C@@H](C3CCCC3)[C@H](C)OC2=O)c1OCOC(C)=O [Compound 42]	> 70	> 70	> 70	< 70
COc1ccnc(C(=O)N[C@H]2CCC[C@H](CCC(C)C)[C@@H](C3CCCC3)[C@H](C)OC2=O)c1OC(C)=O [Compound 43]	> 70	> 70	> 70	< 70
COc1ccnc(C(=O)N[C@H]2CCC[C@H](CCC(C)C)[C@@H](C3CCCC3)[C@H](C)OC2=O)c1OCOC(=O)C(C)C [Compound 44]	> 70	> 70	> 70	< 70
COc1ccnc(C(=O)N[C@H]2CCC[C@H](Cc3ccccc3)[C@@H](CCC(C)C)[C@H](C)OC2=O)c1OC(C)=O [Compound 45]	> 70	> 70	> 70	< 70
CCC[C@H]1CCC[C@H](NC(=O)c2nccc(OC)c2OC(C)=O)C(=O)O[C@@H](C)[C@@H]1Cc1ccc(F)cc1 [Compound 46]	> 70	> 70	> 70	> 70
COc1ccnc(C(=O)N[C@H]2CCC[C@H](Cc3ccccc3)[C@@H](CCC(C)C)[C@H](C)OC2=O)c1OCOC(C)=O [Compound 47]	> 70	> 70	> 70	< 70
CCC[C@H]1CCC[C@H](NC(=O)c2nccc(OC)c2OCOC(C)=O)C(=O)O[C@@H](C)[C@@H]1Cc1ccc(F)cc1 [Compound 48]	> 70	> 70	> 70	> 70
COc1ccnc(C(=O)N[C@H]2CCC[C@H](Cc3ccccc3)[C@@H](CCC(C)C)[C@H](C)OC2=O)c1OC(=O)C(C)C [Compound 49]	> 70	> 70	< 70	< 70
COc1ccnc(C(=O)N[C@H]2CCC[C@H](Cc3ccccc3)[C@@H](CCC(C)C)[C@H](C)OC2=O)c1OCOC(=O)C(C)C [Compound 50]	> 70	> 70	> 70	< 70
CCOCC(=O)OCOc1c(OC)ccnc1C(=O)N[C@H]1CCC[C@H](Cc2ccccc2)[C@@H](CCC(C)C)[C@H](C)OC1=O [Compound 51]	> 70	> 70	> 70	< 70
COc1ccnc(C(=O)N[C@H]2CCC[C@H](Cc3ccccc3)[C@@H](c3ccccc3)[C@H](C)OC2=O)c1OCOC(C)=O [Compound 52]	> 70	> 70	> 70	< 70
COc1ccnc(C(=O)N[C@H]2CCC[C@H](Cc3ccccc3)[C@@H](c3ccccc3)[C@H](C)OC2=O)c1OC(C)=O [Compound 53]	> 70	> 70	> 70	< 70
CCC[C@H]1CCC[C@H](NC(=O)c2nccc(OC)c2OCOC(C)=O)C(=O)O[C@@H](C)[C@@H]1c1ccccc1 [Compound 54]	> 70	> 70	> 70	> 70
CCC[C@H]1CCC[C@H](NC(=O)c2nccc(OC)c2OC(C)=O)C(=O)O[C@@H](C)[C@@H]1c1ccccc1 [Compound 55]	> 70	> 70	> 70	> 70
COc1ccnc(C(=O)N[C@H]2CCC[C@H](CCCc3ccccc3)[C@@H](CC(C)C)[C@H](C)OC2=O)c1OC(C)=O [Compound 56]	> 70	< 70	> 70	< 70
COc1ccnc(C(=O)N[C@H]2CCC[C@H](CCCc3ccccc3)[C@@H](Cc3ccc(OC(F)(F)F)cc3)[C@H](C)OC2=O)c1OC(C)=O [Compound 57]	< 70	< 70	< 70	< 70
COc1ccnc(C(=O)N[C@H]2CCC[C@H](CCCc3ccccc3)[C@@H](Cc3ccc(OC(F)(F)F)cc3)[C@H](C)OC2=O)c1OC(=O)C(C)C [Compound 58, 4-methoxy-2-(((3S,7S,8R,9S)-9-methyl-2-oxo-7-(3-phenylpropyl)-8-(4-(trifluoromethoxy)benzyl)oxonan-3-yl)carbamoyl)pyridin-3-yl isobutyrate]	< 70	< 70	< 70	< 70
COc1ccnc(C(=O)N[C@H]2CCC[C@H](CCCc3ccccc3)[C@@H](Cc3ccc(OC(F)(F)F)cc3)[C@H](C)OC2=O)c1OCOC(C)=O [Compound 59]	> 70	< 70	> 70	< 70
COc1ccnc(C(=O)N[C@H]2CCC[C@H](CC3CC3)[C@@H](Cc3ccccc3)[C@H](C)OC2=O)c1OC(C)=O [Compound 60]	> 70	> 70	> 70	> 70
COc1ccnc(C(=O)N[C@H]2CCC[C@H](CC3CC3)[C@@H](Cc3ccccc3)[C@H](C)OC2=O)c1OCOC(C)=O [Compound 61]	> 70	> 70	> 70	> 70
COc1ccnc(C(=O)N[C@H]2CCC[C@H](Cc3ccccc3)[C@@H](Cc3ccc(F)cc3)[C@H](C)OC2=O)c1OC(C)=O [Compound 62]	> 70	> 70	> 70	< 70
COc1ccnc(C(=O)N[C@H]2CCC[C@H](Cc3ccccc3)[C@@H](Cc3ccc(F)cc3)[C@H](C)OC2=O)c1OCOC(C)=O [Compound 63]	> 70	> 70	> 70	< 70
COc1ccnc(C(=O)N[C@H]2CCC[C@H](Cc3ccccc3)[C@@H](Cc3ccc(F)cc3)[C@H](C)OC2=O)c1OCOC(=O)C(C)C [Compound 64]	> 70	> 70	> 70	< 70
COc1ccnc(C(=O)N[C@H]2CCC[C@H](Cc3ccc(C(F)(F)F)cc3)[C@@H](Cc3ccc(OC(F)(F)F)cc3)[C@H](C)OC2=O)c1OCOC(C)=O [Compound 65]	< 70	< 70	< 70	< 70
